One assay concerns MDA-MB-231 cells. Put plainly: Cytotoxicity of exosomes loaded with miRNA and DOX. The note with it: MDA-MB-231, after 24 h and 48 h. Type of assay: cell-based. As to the method: The cell cultured on 96-well with Exo/CARExo for the collection of different time-points, the culture medium was collected and washed with PBS solution to remove any residual medium. Tetrazolium dye MTT (3-(4,5-dimethylthiazol-2-yl)-2,5-diphenyltetrazolium bromide) (Sigma-Aldrich) was mixed fresh medium with ratio of 1:9 and performed to assess for cell viability, which worked by acting on the respiratory chain. After 3 h of reaction, the MTT agent was removed and DMSO was added and left aside for 20 min to dissolve the formazan crystals and redistributed evenly into a 96-well. Absorbance was quantified by measuring at a wavelength of 570 nm to assess for cell viability.
Then, the present invention further increased the test group to six groups: Ctl, Drug, miR, CARExo, CARExo-Drug and CARExo-miR-Drug, to distinguish the validation of cancer cell killing efficacy (FIG. 10). […] Whereas CARExo or Drug only the effect was about 50%. It could be seen that the cocktail of exosomes can effectively and quickly kill cancer cells in the first time.

Another assay addresses T1, YAP protein (Homo sapiens, UniProt P46937).
T1 construct: endogenous in cells; host or cells: HEK293T
Put plainly: YAP inhibitor treatment of HEK293T-laden auxetic scaffold under cyclic tensile stimulation. Format: cell-based. An excerpt:
In the present invention, hydrogels with an auxetic structure were fabricated through a template moulding process. Considering that the cell-laden hydrogels with an auxetic structure should be compatible with a tensile bioreactor, three components were used to produce the construct: a Pluronic F-127 solution, GelMa, and cell-laden FGelMa. A positive mould was designed and printed using the BioX bioprinter (Cellink, Sweden) with the Pluronic F-127 (Sigma-Aldrich) solution at a concentration of 30 wt % in distilled water. […] For the mould printing, the stereolithography (STL) model was designed and developed using SolidWorks. The STL file was then converted into a g-code file, which was used to determine the movements and printing paths of the bioprinter, using sliver software. After housing the fugitive ink in a syringe barrel equipped with a luer-locked nozzle with an inner diameter of 150 μm, the fugitive ink was deposited on a glass slide by applying a pneumatic pressure at 170 kPa to form a filament with diameter of approximately 250 μm, using a syringe moving speed of 25 mm/s. The fugitive mould of the auxetic construct was fabricated layer-by-layer (150 μm per layer) until the final thickness of the construct reached 2.1 mm. […]

T1 sequence (P46937 whole entry): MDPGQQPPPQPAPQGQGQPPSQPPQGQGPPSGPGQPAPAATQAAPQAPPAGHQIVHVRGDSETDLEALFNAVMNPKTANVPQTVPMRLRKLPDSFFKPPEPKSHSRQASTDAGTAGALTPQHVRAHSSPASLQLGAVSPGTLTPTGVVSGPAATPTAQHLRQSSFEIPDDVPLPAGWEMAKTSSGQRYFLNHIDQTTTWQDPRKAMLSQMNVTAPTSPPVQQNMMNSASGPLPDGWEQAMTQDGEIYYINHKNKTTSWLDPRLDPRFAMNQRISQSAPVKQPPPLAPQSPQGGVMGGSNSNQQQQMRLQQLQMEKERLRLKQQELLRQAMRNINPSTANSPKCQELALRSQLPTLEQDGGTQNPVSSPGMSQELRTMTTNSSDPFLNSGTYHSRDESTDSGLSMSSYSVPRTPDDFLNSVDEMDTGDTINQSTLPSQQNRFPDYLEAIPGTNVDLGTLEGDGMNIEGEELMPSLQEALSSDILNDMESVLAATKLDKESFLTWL

With `COc1cccc2c1C(=O)c1c(O)c3c(c(O)c1C2=O)C[C@@](O)(C(=O)CO)C[C@@H]3O[C@H]1C[C@H](N)[C@H](O)[C@H](C)O1` [Drug, doxorubicin], the cell killing effect result in the assay with MDA-MB-231 cells is “about 50%”.
On to Verteporfin, for which, on YAP protein, the cell morphology entry is reported as “could not self-assemble to form three-dimensional spheroids” and the “secretion of exosomes relative to the cyclic tensile stimulation group” value came out at 5%.

For the origin of these results see patent US12594344B2, “Production of exosomes and uses thereof” (CHINA MEDICAL UNIVERSITY, priority 2021, dated 2026).
